# Results from patent US10238689B2, “Methods for combating bacterial infections by killing persister cells with mitomycin C and/or cisplatin” (THE PENN STATE RESEARCH FOUNDATION, priority 2015, dated 2019).
# Where two headings read alike, the source gives them in different places.
# How the values were obtained:
# [1] = test system: E. coli K-12 cells; assay: Test of DNA crosslinking compounds for antimicrobial activity; format: cell-based, Escherichia coli
# Experimental: Stocks of cisplatin (2 mg/mL, Sigma-Aldrich, St. Louis, Mo., USA) were prepared in 0.1M NaClO4 and MMC (0.5 mg/mL, Fisher Scientific, Pittsburgh, Pa., USA) was prepared in water. Stocks of busulfan (2 mg/mL, Cayman Chemical, Ann Arbor, Mich., USA), melphalan (2 mg/mL, Cayman Chemical), dynemicin A (5 mg/mL, AdooQ, Irvine, Calif., USA), and tirapazamine (0.5 mg/mL, Sigma-Aldrich) were prepared in dimethylsulfoxide, the stock of cyclophosphamide (0.5 mg/mL, Cayman Chemical) was prepared in water, and the stock of carmustine (214 mg/mL, Enzo Life Sciences, Farmingdale, N.Y., USA) was prepared in ethanol.
# In this Example we tested seven other DNA crosslinking compounds: busulfan (100 μg/mL), carmustine (100 μg/mL) cisplatin (100 μg/mL), cyclophosphamide (100 μg/mL), dynemicin A (200 μg/mL), melphalan (100 μg/mL), and tirapazamine (10 μg/mL).
# [2] = test system: E. coli K-12; assay: Minimum inhibitory concentration (MIC) assay; format: cell-based, Escherichia coli; settings: Escherichia coli, K12, 16 h, lack of turbidity, read-out: MIC
# Experimental: Minimum inhibitory concentration (MIC) assay. To determine the MICs of cisplatin for E. coli K-12, enterohemorrhagic E. coli (EHEC), S. aureus, and P. aeruginosa (PAO1 and PA14), freshly inoculated cultures (at least two independent cultures) in buffered LB (TSB for S. aureus) were incubated for 16 h with varying concentrations of cisplatin, and growth inhibition was assayed by the lack of turbidity.
# [3] = test system: EHEC infection; format: in vivo, Caenorhabditis elegans; settings: MMC 10 μg/mL, ciprofloxacin 5 μg/mL, ampicillin 100 μg/mL, 6 h exposure; four replicates
# [4] = test system: E. coli BW25113; assay: Validation of persisters (three rounds of the persister assay); format: cell-based, Escherichia coli; settings: for survival rate: ciprofloxacin 5 μg/mL or ampicillin 100 μg/mL, 3 h
# Experimental: Validation of persisters. To validate that the persister cells are tolerant to antibiotics, not spontaneous resistant mutants, three rounds of the persister assay were performed. Overnight (16 h) cultures of E. coli BW25113 were diluted 1:1000 with fresh buffered LB and grown to a turbidity of ˜0.8 at 600 nm. […] After the first round of antibiotic treatment, a 1 mL sample was centrifuged at 10,000 rpm for 3 min, and the cells were resuspended in 1 mL of normal saline. […] For the second and third rounds, cell suspensions were diluted 1:100 with fresh buffered LB and regrown to a turbidity of ˜0.8 at 600 nm and used for antibiotic treatment followed by the drop assay.
# [5] = test system: E. coli K-12; assay: Planktonic antibiotic killing assay; format: cell-based, Escherichia coli; settings: for persistence (surviving population): late-stationary phase, MMC 10, ciprofloxacin 5, gentamicin 10 μg/mL, 3 h
# Experimental: (§1) In order to obtain exponential and mid-stationary phase cultures in LB, buffered LB or TSB, overnight cultures (16 h) were diluted 1:1000 in fresh medium and grown to the desired turbidity (i.e., a turbidity below 2 at 600 nm for exponential phase and a turbidity of 3 to 4 at 600 nm for mid-stationary phase). Late-stationary phase cultures in LB or buffered LB were obtained by growing overnight cultures (16 h). In order to obtain exponential and late-stationary phase cultures in M9-glucose, overnight cultures (16 h) were washed diluted 1:1000 in M9-glucose and grown for the desired period of time (i.e., a turbidity of 0.4 at 600 nm for exponential phase and 24 h of growth for late-stationary phase). Anaerobically grown cultures were maintained with ˜20% CO2, ˜79% N2, and ˜1% H2. In order to obtain rifampicin-induced persister cultures in buffered LB, overnight cultures (16 h) were diluted 1:1000 in fresh medium and grown to a turbidity of 0.8 at 600 nm. Cultures were exposed to rifampicin (100 μg/mL) for 30 min, centrifuged, and resuspended in fresh medium to remove the rifampicin.
# [6] = test system: E. coli O157:H7 (EHEC); assay: Planktonic antibiotic killing assay; format: cell-based, Escherichia coli; settings: late-stationary phase, M9-glucose; MMC 10 μg/mL, ciprofloxacin 5 μg/mL, 3 h
# Experimental: as §1
# [7] = test system: E. coli K-12 BW25113 VBNC cultures; assay: VBNC antibiotic killing assay; format: cell-based, Escherichia coli; settings: culturable population of VBNC cultures; MMC 10 μg/mL, ciprofloxacin 5 μg/mL, 16 h
# Experimental: Overnight cultures (16 h) of E. coli K-12 BW25113 grown in LB were diluted 1:1000 in LB and grown to a turbidity of 3.0 at 600 nm. Cells were washed three times with 0.85% NaCl to remove nutrients and incubated in 0.85% NaCl for 32 days until the VBNC population was ˜1,000-fold higher than the culturable population. […] Samples (0.5 mL) were diluted 1:1 with LB to stimulate cellular respiration for 10 min prior to staining with 1 μL of 1 mM RedoxSensor™ Green dye and 1 μL of 20 mM propidium iodide. Samples were visualized in a hemocytometer (Hausser Scientific, Horsham, Pa., USA) using an Olympus BX61 confocal microscope (Olympus, Tokyo, Japan) at 200× magnification in order to determine viability of the VBNC population. Cell counting data was averaged from four images and experiment was performed with at least two independent cultures.
# [8] = test system: S. aureus (methicillin sensitive); assay: Planktonic antibiotic killing assay; format: cell-based, Staphylococcus aureus; settings: rich medium (TSB), MMC 10 μg/mL, ciprofloxacin 5 μg/mL, 3 h
# Experimental: as §1
# [9] = test system: S. aureus biofilm cultures; assay: Biofilm antibiotic killing assay; format: cell-based, Staphylococcus aureus; settings: minimal medium (modified M9-glucose), 24 h treatment, MMC 10 μg/mL, ciprofloxacin 5 μg/mL
# [10] = test system: E. coli K-12; format: cell-based, Escherichia coli; settings: late stationary phase (16 h of growth), buffered LB; cisplatin 500 μg/mL (5×MIC), ciprofloxacin 5 μg/mL (100×MIC), 8 h
# Experimental: Persister cell killing and eradication assays (planktonic cells). For the time course experiment, late stationary phase cells of E. coli K-12 (wild-type and isogenic mutants) were prepared by growing cells overnight (16 h) in LB medium buffered with 100 mM KPO4 at pH 7.0 (buffered LB). A 1 mL culture was used for a drop (10 μL×3) assay to check cell viability at 0 h (i.e., before antibiotic treatment). […] At 1 h intervals, 1 mL culture was centrifuged at 10,000 rpm for 3 min, the supernatant was discarded, the cells were resuspended in 1 mL of normal saline (0.85% NaCl), and the cell suspension was serially diluted for a drop assay to check cell viability.
# To test for eradication, the wild-type E. coli K-12 cells were treated with cisplatin for 12 h, a 1 mL sample was centrifuged, the cell pellet was resuspended in 150 μL of normal saline, and the cells were spread on LB agar to check cell viability. Another 1 mL culture was diluted 1:10 with fresh buffered LB and the cells were incubated to allow any remaining cells to replicate. After 12 h, 18 h, and 24 h, 1 mL samples were centrifuged, resuspended in 150 μL of normal saline and spread on LB agar plates to check cell viability. At least two independent cultures were used.
# [11] = test system: E. coli K-12 persister cells; assay: Rifampicin-induced persister cell killing assay; format: cell-based, Escherichia coli
# Experimental: Rifampicin-pretreatment was used to convert nearly all the E. coli exponentially-growing cells to persister cells. In brief, overnight cultures (16 h) of E. coli BW25113 were diluted 1:1000 in buffered LB and grown to a turbidity of 0.8 at 600 nm (250 mL flask, 250 rpm). Cultures were treated with rifampicin (100 μg/mL) for 30 min (250 mL flask, 250 rpm), centrifuged, and resuspended in fresh medium to remove the rifampicin. A 1 mL culture was used for a drop assay to check cell viability at 0 h. […] After 3 h, 1 mL of culture was centrifuged at 10,000 rpm for 3 min, the supernatant was discarded, the cells were resuspended in 1 mL of normal saline, and the cell suspension was serially diluted for a drop assay to check cell viability. In addition, 1 mL samples were centrifuged, and the cell pellet resuspended in 150 μL of normal saline and spread on LB agar.
# To test whether lower concentrations than 500 μg/mL of cisplatin generate resistant mutants, 5 mL cultures of rifampicin-induced persister cells were treated with 200 μg/mL of cisplatin and cells were enumerated by the drop assay using LB agar, LB agar with 200 μg/mL of cisplatin (LBCP200), and LB agar with 500 μg/mL of cisplatin (LBCP500).
# [12] = test system: EHEC biofilm cultures; settings: M9-glucose, 24 h treatment, MMC 10 μg/mL, ciprofloxacin 5 μg/mL
compound,measurement,setting,value
COC1=C(C(=O)O)[C@H](C)[C@@]23O[C@]24c2cc(O)c5c(c2N[C@H]3C#C/C=C\C#C[C@H]14)C(=O)c1c(O)ccc(O)c1C5=O [dynemicin A],antimicrobial activity,[1],only cisplatin exhibited antimicrobial activity
CC1(C)S[C@@H]2[C@H](NC(=O)[C@H](N)c3ccccc3)C(=O)N2[C@H]1C(=O)O [ampicillin],MIC,[2],10 µg/mL
same,survival of the EHEC-infected worms,[3],enhanced the survival
same,resistant colonies on antibiotic agar,[4]; LBCipro5 or LBAmp100 agar,no colonies were detected
same,survival rate,[4]; round 1,0.001±0.001%
same,survival rate,[4]; round 2,0.0001±0.0000%
same,survival rate,[4]; round 3,0.0001±0.0000%
O=C(O)c1cn(C2CC2)c2cc(N3CCNCC3)c(F)cc2c1=O [ciprofloxacin],MIC,[2],0.05 µg/mL
same,survival,"[5]; anaerobic, late-stationary phase cells in rich medium (LB)",0.44±0.08%
same,susceptibility of exponential-phase cultures,"[5]; exponential phase, M9-glucose",similarly susceptible
same,persistence (surviving population),[5]; M9-glucose,10±1%
same,cells survived,[6],1.2±0.1%
same,survival of the culturable population,[7],0.40±0.05%
same,survival,[8]; exponential phase,0.55±0.04%
same,survival,[8]; mid-stationary phase,2.2±0.1%
same,survival,[9],18±2%
same,survival of the EHEC-infected worms,[3],enhanced the survival
same,survival rate,[4]; round 1,0.045±0.008%
same,survival rate,[4]; round 2,0.03±0.01%
same,survival rate,[4]; round 3,0.012±0.002%
same,time course dependent killing,[10],had little activity
same,surviving fraction of persister cells,[11],9±1%
same,cells surviving,[12],3±1%
O=NN(CCCl)C(=O)NCCCl [carmustine],antimicrobial activity,[1]; 100 μg/mL,only cisplatin exhibited antimicrobial activity
N[C@@H](Cc1ccc(N(CCCl)CCCl)cc1)C(=O)O [melphalan],antimicrobial activity,[1]; 100 μg/mL,only cisplatin exhibited antimicrobial activity
gentamicin,persistence (surviving population),[5]; M9-glucose,44±5%
Nc1n[n+]([O-])c2ccccc2[n+]1[O-] [tirapazamine],antimicrobial activity,[1]; 10 μg/mL,only cisplatin exhibited antimicrobial activity
O=P1(N(CCCl)CCCl)NCCCO1 (centres unmarked) [cyclophosphamide],antimicrobial activity,[1]; 100 μg/mL,only cisplatin exhibited antimicrobial activity
CS(=O)(=O)OCCCCOS(C)(=O)=O [busulfan],antimicrobial activity,[1]; 100 μg/mL,only cisplatin exhibited antimicrobial activity
